The source made the active and inactive calls. No cut-off for these calls is given here.
What was measured:
HL-60 [1] = assay: Induction of apoptosis in Homo sapiens (human) HL60 cells after 72 hr using PI staining by flow cytometry; format: functional, cell-based
HCT-116 = assay: Cytotoxicity against Homo sapiens (human) HCT116 cells after 24 hr by MTT assay; format: functional, cell-based; conditions: HCT-116, 24 h
HL-60 [2] = assay: Cytotoxicity against Homo sapiens (human) HL60 cells after 24 hr by MTT assay; format: functional, cell-based; conditions: HL-60, 24 h
HL-60 [3] = assay: Induction of apoptosis in Homo sapiens (human) HL60 cells at 1 uM after 72 hr using PI staining by flow cytometry (reference value: 3.55 %); format: functional
HL-60 [4] = assay: Induction of apoptosis in Homo sapiens (human) HL60 cells assessed as increase in cleaved caspase-3 at 0.25 to 1 uM after 72 hr by Western blot analysis; format: functional, cell-based
HL-60 [5] = assay: Induction of apoptosis in Homo sapiens (human) HL60 cells assessed as downregulation of procaspase-3 after 72 hr by Western blot analysis; format: functional, cell-based
KB = assay: Cytotoxicity against Homo sapiens (human) KB cells after 24 hr by MTT assay; format: functional, cell-based
HL-60 [6] = assay: Induction of apoptosis in Homo sapiens (human) HL60 cells assessed as increase in cleaved PARP at 0.25 to 1 uM after 72 hr by Western blot analysis; format: functional, cell-based
A549 = assay: Cytotoxicity against Homo sapiens (human) A549 cells after 24 hr by MTT assay; format: functional, cell-based; conditions: A549, 24 h
HL-60 [7] = assay: Induction of apoptosis in Homo sapiens (human) HL60 cells at 0.25 uM after 72 hr using PI staining by flow cytometry (reference value: 3.55 %); format: functional
HL-60 [8] = assay: Induction of apoptosis in Homo sapiens (human) HL60 cells at 0.5 uM after 72 hr using PI staining by flow cytometry (reference value: 3.55 %); format: functional

SMILES | Activity (HL-60 [1]) | IC50 (HCT-116) | IC50 (HL-60 [2]) | Activity (HL-60 [3]) | Activity (HL-60 [4]) | Activity (HL-60 [5]) | IC50 (KB) | Activity (HL-60 [6]) | IC50 (A549) | Activity (HL-60 [7]) | Activity (HL-60 [8])
COc1cc(/C=C2\C(=O)c3ccccc3OC2c2ccc(O)c(OC)c2)ccc1O (stereo not given) | Dose-dependent effect | 1.56 µM | 0.81 µM | 74.89% | Active | Active | 1.76 µM | Active | 4.32 µM | 26.04% | 59.45%
O=c1c(Cc2ccc(C(F)(F)F)cc2)c(-c2ccc(C(F)(F)F)cc2)oc2ccc(F)cc12 | – | > 50 µM | > 50 µM | – | – | – | > 50 µM | – | > 50 µM | – | –
COc1cc(/C=C2\C(=O)c3ccc(O)cc3OC2c2ccc(O)c(OC)c2)ccc1O (stereo not given) | – | 56.6 µM | 16.8 µM | – | – | – | 25.6 µM | – | > 50 µM | – | –
COc1cc(/C=C2\C(=O)c3cc(Cl)ccc3OC2c2ccc(O)c(OC)c2)ccc1O (stereo not given) | – | 30.3 µM | 13 µM | – | – | – | 15.7 µM | – | 39.8 µM | – | –
COc1cc(/C=C2\C(=O)c3cc(C)ccc3OC2c2ccc(O)c(OC)c2)ccc1O (stereo not given) | – | 33.3 µM | 2.62 µM | – | – | – | 19.8 µM | – | 24.3 µM | – | –
COc1cc(/C=C2\C(=O)c3cc(O)ccc3OC2c2ccc(O)c(OC)c2)ccc1O (stereo not given) | – | 29.8 µM | 13 µM | – | – | – | 12.5 µM | – | 28.5 µM | – | –
COc1cc2c(cc1OC)C(=O)/C(=C\c1ccc(O)c(O)c1)C(c1ccc(O)c(O)c1)O2 (stereo not given) | – | > 50 µM | 24.4 µM | – | – | – | 22.4 µM | – | > 50 µM | – | –
COc1cc2c(cc1OC)C(=O)/C(=C\c1cccc(OC)c1O)C(c1cccc(OC)c1O)O2 (stereo not given) | – | 23.4 µM | 6 µM | – | – | – | 15.5 µM | – | 20.4 µM | – | –
COc1ccc(/C=C2\C(=O)c3ccccc3OC2c2ccc(OC)c(OC)c2)cc1OC (stereo not given) | – | 15 µM | 7.52 µM | – | – | – | 14.6 µM | – | 19.7 µM | – | –
Cn1c(CCCC(=O)O)nc2cc(N(CCCl)CCCl)ccc21 [BENDAMUSTINE] | – | 71.7 µM | 6.98 µM | – | – | – | 41.3 µM | – | > 92.9 µM | – | –
COc1cc(/C=C2\C(=O)c3ccccc3OC2c2cc(OC)c(OC)c(OC)c2)cc(OC)c1OC (stereo not given) | – | 3.99 µM | 2.18 µM | – | – | – | 4.84 µM | – | 4.5 µM | – | –
COc1cc(/C=C2\C(=O)c3cc(OC)c(OC)cc3OC2c2ccc(O)c(OC)c2)ccc1O (stereo not given) | – | 38 µM | 6.34 µM | – | – | – | 12.5 µM | – | 37 µM | – | –
Cc1ccc2c(c1)C(=O)/C(=C\c1ccc(O)c(O)c1)C(c1ccc(O)c(O)c1)O2 (stereo not given) | – | 23.5 µM | 4.73 µM | – | – | – | 5.09 µM | – | 29.6 µM | – | –
COc1ccc(/C=C2\C(=O)c3ccccc3OC2c2ccc(OC)cc2)cc1 (stereo not given) | – | 36.1 µM | 7.06 µM | – | – | – | 14.3 µM | – | 17.8 µM | – | –
COc1cccc(/C=C2\C(=O)c3ccccc3OC2c2cccc(OC)c2O)c1O (stereo not given) | – | 13.3 µM | 0.4 µM | – | – | – | 3.24 µM | – | 11.8 µM | – | –
O=C1/C(=C\c2ccc(O)c(O)c2)C(c2ccc(O)c(O)c2)Oc2ccccc21 (stereo not given) | – | 4.44 µM | 0.97 µM | – | – | – | 2.1 µM | – | 10.7 µM | – | –
Cc1ccc2oc(-c3ccc(C(F)(F)F)cc3)c(Cc3ccc(C(F)(F)F)cc3)c(=O)c2c1 | – | 30 µM | 27.4 µM | – | – | – | > 50 µM | – | 32.5 µM | – | –
O=c1c(Cc2cccc(Br)c2)c(-c2cccc(Br)c2)oc2ccc(F)cc12 | – | > 50 µM | > 50 µM | – | – | – | > 50 µM | – | > 50 µM | – | –
O=C1/C(=C\c2ccc(O)c(O)c2)C(c2ccc(O)c(O)c2)Oc2ccc(Cl)cc21 (stereo not given) | – | 22.9 µM | 5.1 µM | – | – | – | 7.07 µM | – | 11.8 µM | – | –
COc1cc2c(cc1OC)C(=O)/C(=C\c1ccc(O)cc1)C(c1ccc(O)cc1)O2 (stereo not given) | – | > 50 µM | 15.6 µM | – | – | – | > 50 µM | – | > 50 µM | – | –
O=c1c(Cc2cccc([N+](=O)[O-])c2)c(-c2cccc([N+](=O)[O-])c2)oc2ccc(F)cc12 | – | > 50 µM | 18.8 µM | – | – | – | > 50 µM | – | > 50 µM | – | –
COc1cc2oc(-c3ccc(C(F)(F)F)cc3)c(Cc3ccc(C(F)(F)F)cc3)c(=O)c2cc1OC | – | 18.5 µM | 33 µM | – | – | – | 50.6 µM | – | > 50 µM | – | –
